pKi: −log10 of the molar value.
molecular target: Ras-related C3 botulinum toxin substrate 1 (Mus musculus, UniProt P63001); experiment: activated mutant Rac1 GTP binding inhibitors, SAR follow-up, biochemical, additional analogs, multiplex bead flow cytometry (AID 2039)

Row | Compound | pKi
1 | O=C1N=c2ccc(Br)cc2=C1c1[nH]c2ccccc2c1NO [5-bromanyl-3-[3-(oxidanylamino)-1H-indol-2-yl]indol-2-one] | 5.53
2 | O=C1NC(=O)/C(=C2/C(=O)Nc3ccccc32)N1 | 5.97
3 | O=C1NC(=S)N/C1=C1\C(=O)Nc2ccccc21 [(3Z)-3-(5-oxo-2-sulfanylideneimidazolidin-4-ylidene)-1H-indol-2-one] | 6.19
4 | O=C1Nc2c(Br)cccc2C1=C1Nc2ccccc2C1=O | 5.60
5 | O=C1N=c2c(F)cccc2=C1c1[nH]c2ccccc2c1NO [7-fluoro-3-[3-(hydroxyamino)-1H-indol-2-yl]-2-indolone] | 5.54
6 | O=C1Nc2ccc(Br)cc2C1=C1Nc2ccccc2C1=O | 5.95

Reference: BindingDB's records for doi:10.7270/Q20V8B7J (Nmmlsc, 2009)
